Laboratory results as given in patent publication US8618175B2, “Ultrasound medical gel composition etherified hydroxyethylcellulose” (Brussels Ventures Corp., priority 2010, dated 2013).

Experiment: Spreading ability of solvents, drop on Standard No. 1 filter paper
Type: physicochemical
Settings: for Drop Diameter After Set period of time 0(h) / Drop Diameter After Set period of time 0.5(h) / Drop Diameter After Set period of time 1(h) / Drop Diameter After Set period of time 8(h): average of 3 trials
Experimental: The spreading ability of various solvents was measured. Solvents including an antimicrobial agent, as well as solvents without an antimicrobial agent, were tested. Benzalkonium chloride was used as an antimicrobial agent. Spreading ability was measured by dropping one drop of liquid onto Standard No. 1 filter paper, and measuring the diameter of each drop at various time periods. The results are shown below in table 3, and reflect the average results obtained after 3 trials for each sample.

% Increase in drop diameter after 8 h (antimicrobial agent 0 wt %) | Drop Diameter After Set period of time 0(h) (antimicrobial agent 0 wt %) | Drop Diameter After Set period of time 0.5(h) (antimicrobial agent 0 wt %) | Drop Diameter After Set period of time 1(h) (antimicrobial agent 0 wt %) | Drop Diameter After Set period of time 8(h) (antimicrobial agent 0 wt %) | % Increase in drop diameter after 8 h (benzalkonium chloride 3.2 wt %) | Drop Diameter After Set period of time 0(h) (benzalkonium chloride 3.2 wt %) | Drop Diameter After Set period of time 0.5(h) (benzalkonium chloride 3.2 wt %) | Drop Diameter After Set period of time 1(h) (benzalkonium chloride 3.2 wt %) | Drop Diameter After Set period of time 8(h) (benzalkonium chloride 3.2 wt %) | Structure (SMILES)
357% | 7.0 | 22.3 | 23.6 | 32.0 | 632% | 4.0 | 22.6 | 24.0 | 29.3 | OCC(O)CO [Glycerin 99%, Glycerin]
120% | 10.0 | 28.0 | 29.0 | 22.0 | 100% | 12.3 | 28.0 | 29.0 | 24.6 | CC(O)CO (stereo not drawn) [Propylene Glycol]

Structure (SMILES) | % Increase in drop diameter after 8 h (antimicrobial agent 0 wt %) | Drop Diameter After Set period of time 0(h) (antimicrobial agent 0 wt %) | Drop Diameter After Set period of time 0.5(h) (antimicrobial agent 0 wt %) | Drop Diameter After Set period of time 1(h) (antimicrobial agent 0 wt %) | Drop Diameter After Set period of time 8(h) (antimicrobial agent 0 wt %) | % Increase in drop diameter after 8 h (benzalkonium chloride 3.2 wt %) | Drop Diameter After Set period of time 0(h) (benzalkonium chloride 3.2 wt %) | Drop Diameter After Set period of time 0.5(h) (benzalkonium chloride 3.2 wt %) | Drop Diameter After Set period of time 1(h) (benzalkonium chloride 3.2 wt %) | Drop Diameter After Set period of time 8(h) (benzalkonium chloride 3.2 wt %)
OCCCO [Propanediol (Zemea ™), Propanediol] | 263% | 10.6 | 32 | 33.5 | 38.5 | 249% | 10.6 | 30.3 | 32.3 | 37.0
